# The supplement of paper PMC10307832
# Compound: CC(C)C[C@@H](C(=O)N[C@H](C(=O)OC1CCCC1)c1ccccc1)[C@H](O)C(=O)NO [Tosedostat] + O=C(c1cc(Cc2n[nH]c(=O)c3ccccc23)ccc1F)N1CCN(C(=O)C2CC2)CC1 [Olaparib] (partner 8 µM)
# Experiment: relative viability (nuclei count vs DMSO), 5 days (fraction); higher = more cells survive
# Details: first compound 0.02 µM
# How it was run: (§1)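 Five library-drug doses in √10 steps were combined with a fixed anchor-drug dose, or a single drug was given alone, by pin tool to lung cancer cell lines in 1536-well plates the day after seeding. Nuclei were stained and counted after 5 days. Relative viability is the nuclei count in treated wells over that in vehicle wells, taken as the median of duplicate plates.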
row,Cell Line,relative viability
1,NCI-H522,0.637
2,SK-LU-1,0.467
3,NCI-H1703,0.45
4,EBC-1,0.661
5,NCI-H1792,0.481
6,NCI-H2087,0.698
7,NCI-H596,0.66
8,NCI-H1355,0.731
9,SW 1573,0.493
10,LCLC-103H,0.763
11,NCI-H727,0.677
12,NCI-H2405,0.972
13,EMC-BAC-2,0.517
14,NCI-H23,0.323
15,Calu-6,0.631
16,HCC-366,0.361
17,NCI-H1755,0.924
18,NCI-H838,0.839
19,LK-2,0.615
20,NCI-H2347,0.694
21,NCI-H2342,0.401
22,SK-MES-1,0.719

row,Cell Line,relative viability
1,H3255,0.596
2,COR-L23,0.471
3,COR-L 105,0.771
4,IA-LM,0.839
5,LU99A,0.278
6,ChaGo-K-1,0.459
7,NCI-H2170,0.579
8,NCI-H460,0.424
9,HOP-62,0.638
10,HCC-44,0.965
11,A549,0.42
12,SW 900,0.784
13,LXF-289,1.08
14,NCI-H1648,0.799
15,NCI-H661,0.814
16,NCI-H2023,0.509
17,NCI-H1299,1.04
18,CAL-12T,0.769
19,NCI-H2009,0.702
20,NCI-H520,0.402
21,NCI-H2228,0.735
22,NCI-H1650,0.768

# Same assay, conditions: first compound 0.06325 µM
row,Cell Line,relative viability
1,NCI-H522,0.644
2,SK-LU-1,0.45
3,NCI-H1703,0.373
4,EBC-1,0.637
5,NCI-H1792,0.425
6,NCI-H2087,0.562
7,NCI-H596,0.662
8,NCI-H1355,0.662
9,SW 1573,0.42
10,LCLC-103H,0.773
11,NCI-H727,0.492
12,NCI-H2405,0.902
13,EMC-BAC-2,0.41
14,NCI-H23,0.238
15,Calu-6,0.494
16,HCC-366,0.334
17,NCI-H1755,0.851
18,NCI-H838,0.716
19,LK-2,0.798
20,NCI-H2347,0.618
21,NCI-H2342,0.392
22,SK-MES-1,0.672

row,Cell Line,relative viability
1,H3255,0.532
2,COR-L23,0.295
3,COR-L 105,0.636
4,IA-LM,0.869
5,LU99A,0.216
6,ChaGo-K-1,0.399
7,NCI-H2170,0.513
8,NCI-H460,0.438
9,HOP-62,0.346
10,HCC-44,0.984
11,A549,0.247
12,SW 900,1.02
13,LXF-289,0.958
14,NCI-H1648,0.644
15,NCI-H661,0.723
16,NCI-H2023,0.424
17,NCI-H1299,0.947
18,CAL-12T,0.658
19,NCI-H2009,0.592
20,NCI-H520,0.362
21,NCI-H2228,0.56
22,NCI-H1650,0.732

# Same assay, conditions: first compound 0.2 µM
row,Cell Line,relative viability
1,NCI-H522,0.658
2,SK-LU-1,0.335
3,NCI-H1703,0.293
4,EBC-1,0.546
5,NCI-H1792,0.386
6,NCI-H2087,0.558
7,NCI-H596,0.776
8,NCI-H1355,0.649
9,SW 1573,0.363
10,LCLC-103H,0.777
11,NCI-H727,0.679
12,NCI-H2405,0.856
13,EMC-BAC-2,0.459
14,NCI-H23,0.294
15,Calu-6,0.5
16,HCC-366,0.385
17,NCI-H1755,0.827
18,NCI-H838,0.735
19,LK-2,0.583
20,NCI-H2347,0.539
21,NCI-H2342,0.444
22,SK-MES-1,0.698

row,Cell Line,relative viability
1,H3255,0.545
2,COR-L23,0.291
3,COR-L 105,0.695
4,IA-LM,0.655
5,LU99A,0.211
6,ChaGo-K-1,0.44
7,NCI-H2170,0.686
8,NCI-H460,0.392
9,HOP-62,0.321
10,HCC-44,0.97
11,A549,0.359
12,SW 900,0.983
13,LXF-289,1.07
14,NCI-H1648,0.764
15,NCI-H661,0.75
16,NCI-H2023,0.332
17,NCI-H1299,0.954
18,CAL-12T,0.588
19,NCI-H2009,0.661
20,NCI-H520,0.293
21,NCI-H2228,0.518
22,NCI-H1650,0.754

# Same assay, conditions: first compound 0.6325 µM
row,Cell Line,relative viability
1,NCI-H522,0.788
2,SK-LU-1,0.391
3,NCI-H1703,0.29
4,EBC-1,0.442
5,NCI-H1792,0.317
6,NCI-H2087,0.339
7,NCI-H596,0.598
8,NCI-H1355,0.587
9,SW 1573,0.372
10,LCLC-103H,0.816
11,NCI-H727,0.51
12,NCI-H2405,0.777
13,EMC-BAC-2,0.428
14,NCI-H23,0.252
15,Calu-6,0.439
16,HCC-366,0.32
17,NCI-H1755,0.857
18,NCI-H838,0.739
19,LK-2,0.592
20,NCI-H2347,0.58
21,NCI-H2342,0.295
22,SK-MES-1,0.601

row,Cell Line,relative viability
1,H3255,0.525
2,COR-L23,0.269
3,COR-L 105,0.507
4,IA-LM,0.814
5,LU99A,0.171
6,ChaGo-K-1,0.377
7,NCI-H2170,0.574
8,NCI-H460,0.326
9,HOP-62,0.245
10,HCC-44,0.949
11,A549,0.26
12,SW 900,0.752
13,LXF-289,0.969
14,NCI-H1648,0.875
15,NCI-H661,0.72
16,NCI-H2023,0.348
17,NCI-H1299,0.864
18,CAL-12T,0.59
19,NCI-H2009,0.603
20,NCI-H520,0.301
21,NCI-H2228,0.598
22,NCI-H1650,0.515

# Same assay, conditions: first compound 2 µM
row,Cell Line,relative viability
1,NCI-H522,0.637
2,SK-LU-1,0.367
3,NCI-H1703,0.311
4,EBC-1,0.409
5,NCI-H1792,0.432
6,NCI-H2087,0.36
7,NCI-H596,0.49
8,NCI-H1355,0.607
9,SW 1573,0.281
10,LCLC-103H,0.772
11,NCI-H727,0.451
12,NCI-H2405,0.697
13,EMC-BAC-2,0.378
14,NCI-H23,0.191
15,Calu-6,0.326
16,HCC-366,0.33
17,NCI-H1755,0.776
18,NCI-H838,0.729
19,LK-2,0.437
20,NCI-H2347,0.484
21,NCI-H2342,0.373
22,SK-MES-1,0.404

row,Cell Line,relative viability
1,H3255,0.497
2,COR-L23,0.268
3,COR-L 105,0.591
4,IA-LM,0.662
5,LU99A,0.19
6,ChaGo-K-1,0.325
7,NCI-H2170,0.613
8,NCI-H460,0.388
9,HOP-62,0.363
10,HCC-44,0.916
11,A549,0.306
12,SW 900,0.629
13,LXF-289,0.942
14,NCI-H1648,0.587
15,NCI-H661,0.724
16,NCI-H2023,0.372
17,NCI-H1299,0.835
18,CAL-12T,0.549
19,NCI-H2009,0.544
20,NCI-H520,0.304
21,NCI-H2228,0.272
22,NCI-H1650,0.594

# Compound: CC1=NN=C(O1)C2=NN=C(C=C2)N3CCC(CC3)OC4=C(C=CC(=C4)F)Cl + CS(=O)(=O)N1CCN(Cc2cc3nc(-c4cccc5[nH]ncc45)nc(N4CCOCC4)c3s2)CC1 [Pictilisib] (partner 1 µM)
# Experiment: as above
# Details: first compound 0.253 µM
# How it was run: as §1
row,Cell Line,relative viability
1,SK-LU-1,0.518
2,NCI-H1703,0.226
3,EBC-1,0.33
4,NCI-H1792,0.205
5,NCI-H2087,0.769
6,SW 1573,0.527
7,LCLC-103H,0.556
8,NCI-H727,0.475
9,NCI-H2405,0.401
10,EMC-BAC-2,0.534
11,NCI-H23,0.466
12,Calu-6,0.735
13,HCC-366,0.12
14,NCI-H1755,0.382
15,NCI-H838,0.422
16,LK-2,0.651
17,NCI-H2347,0.024
18,SK-MES-1,0.263
19,H3255,0.505

row,Cell Line,relative viability
1,COR-L23,0.66
2,COR-L 105,0.426
3,IA-LM,0.173
4,LU99A,0.303
5,ChaGo-K-1,0.633
6,NCI-H2170,0.282
7,NCI-H460,0.24
8,HOP-62,0.652
9,HCC-44,0.42
10,A549,0.406
11,LXF-289,0.69
12,NCI-H661,0.386
13,NCI-H2023,0.22
14,NCI-H1299,0.698
15,CAL-12T,0.392
16,NCI-H2009,0.711
17,NCI-H1563,0.625
18,NCI-H520,0.3
19,NCI-H2228,0.297

# Same assay, conditions: first compound 0.8 µM
row,Cell Line,relative viability
1,SK-LU-1,0.508
2,NCI-H1703,0.265
3,EBC-1,0.485
4,NCI-H1792,0.314
5,NCI-H2087,0.604
6,NCI-H596,0.352
7,SW 1573,0.415
8,LCLC-103H,0.479
9,NCI-H727,0.4
10,NCI-H2405,0.523
11,EMC-BAC-2,0.531
12,Calu-6,0.747
13,HCC-366,0.197
14,NCI-H1755,0.383
15,NCI-H838,0.459
16,LK-2,0.716
17,NCI-H2347,0.53
18,SK-MES-1,0.377
19,H3255,0.438

row,Cell Line,relative viability
1,COR-L23,0.621
2,COR-L 105,0.405
3,IA-LM,0.195
4,LU99A,0.327
5,ChaGo-K-1,0.681
6,NCI-H2170,0.335
7,NCI-H460,0.329
8,HCC-44,0.444
9,A549,0.255
10,LXF-289,0.718
11,NCI-H661,0.367
12,NCI-H2023,0.27
13,NCI-H1299,0.611
14,CAL-12T,0.553
15,NCI-H2009,0.618
16,NCI-H1563,0.694
17,NCI-H520,0.325
18,NCI-H2228,0.313
19,NCI-H1650,0.588

# Same assay, conditions: first compound 2.53 µM
row,Cell Line,relative viability
1,SK-LU-1,0.529
2,NCI-H1703,0.258
3,EBC-1,0.473
4,NCI-H1792,0.375
5,NCI-H2087,0.795
6,NCI-H596,0.366
7,NCI-H1355,0.453
8,SW 1573,0.473
9,LCLC-103H,0.567
10,NCI-H727,0.498
11,NCI-H2405,0.4
12,EMC-BAC-2,0.572
13,NCI-H23,0.527
14,Calu-6,0.702
15,HCC-366,0.15
16,NCI-H1755,0.398
17,NCI-H838,0.442
18,LK-2,0.869
19,NCI-H2347,0.422
20,SK-MES-1,0.341
21,H3255,0.433
22,COR-L23,0.686
